Laboratory results: US8569378B2, “p27 protein inducer” (Chugai Seiyaku Kabushiki Kaisha, priority 2007, dated 2013)
Structures can show the parent of a compound that is named as a salt.

Columns and labels:
[1] = test system: p27 protein; assay: Quantification of p27 protein by ELISA (p27 protein-inducing activity, EC50); assay type: cell-based, human; conditions: NCI-H460 cells, 48 hours, p27 sandwich ELISA
Method: The p27 protein-inducing activities of the compounds or salts listed in Tables 1-1, 1-2 and 2 below were measured as follows.
Preparation of Cell Lysate:
NCI-H460 human non-small cell lung cancer cells (ATCC HTB-177) were plated in 6-well plates at 2×10^5 cells/well and incubated overnight. Then, the test substance was added to the medium to a final concentration of 10000 nmol/L, 3000 nmol/L, 100 nmol/L, 30 nmol/L, 10 nmol/L, 3 nmol/L, 1 nmol/L, 0.3 nmol/L, 0.1 nmol/L, 0.03 nmol/L or 0.01 nmol/L and the cells were incubated at 37° C. in 5% CO2 for 48 hours. 150 μL of Cell Lysis Buffer (catalog no. 9803, Cell Signaling) which had been diluted to 1-fold concentration (1 mM PMSF was added immediately before use) was added, and the mixture was allowed to stand on ice for 10 minutes. The Cell Lysis Buffer in which cells were lysed was collected together with cells with a scraper and transferred to a new tube. It was centrifuged at 15000 rpm for 10 minutes at 4° C. and the supernatant was then transferred to a new tube.
Quantification by Sandwich ELISA:
Anti-p27 monoclonal antibody (catalog no. 71-9600, Zymed) was diluted to 5 μg/mL in 50 mM carbonate coating buffer (0.4 g/L NaCO3, 0.73 g/L NaHCO3 and 0.04 g/L NaN3 in distilled water), and it was then added at 50 μL/well and allowed to stand overnight at 4° C. to bind the antibody. After washing three times with PBS, 200 μL of blocking solution (0.2% I-Block in PBS) was added to each well. After 1 hour of incubation at room temperature, washing with PBS-T (0.05% Tween 20 in PBS) was performed three times. The sample and recombinant p27 protein standard were serially diluted in Cell Lysis Buffer (catalog no. 9803, Cell Signaling) which had been diluted to 1-fold concentration (1 mM PMSF was added immediately before use), and it was then added at 100 μL/well. After 1 hour of incubation at room temperature, washing with 200 μL of PBS-T was performed three times. HRP-labeled anti-p27 antibody (product no. 610243, BD Transdution Laboratories) was diluted 1:2500 (i.e. to 0.1 μg/mL) in 0.2% I-Block/0.05% PBS-T, and it was then added at 100 μL/well. After 1 hour of incubation at room temperature, washing with 200 μL of PBS-T was performed three times. Chromogenic substrate solution (TMB One Solution, catalog no. G7431, Promega) was added at 100 μL/well and allowed to develop a color reaction at room temperature. After stopping the reaction with 50 μL of 1N H2SO4, the absorbance at 450 nm was measured.
Calculation of EC50 Values:
A standard response curve was generated by plotting the amount of p27 protein against the concentration of the test substance. The basal level of response was defined as 0%, while the plateau level where the induction of p27 protein had been maximized was defined as 100%. Finally, the test substance concentration at which 50% induction was achieved was calculated, and it was defined as EC50.

[2] = test system: TNF-α; assay: Measurement of TNF-α production inhibitory activity in LPS-stimulated THP-1 cells; assay type: cell-based; conditions: Homo sapiens, overnight, TNF-α in supernatant by ELISA, Table 3
Method: TNF-α is an inflammatory cytokine. It plays an important role in the initiation of inflammation, particularly in rheumatism. The TNF-α production inhibitory activities of the compounds or salts listed in Table 3 below were measured as follows.
THP-1 human monocytic leukemia cells (ATCC) were suspended to a cell density of 5×10^5 cells/mL in RPMI 1640 medium supplemented with 5% inactivated fetal bovine serum, and this suspension was aliquoted into a 96-well round-bottomed tissue culture plate at 0.2 mL/well. A solution of the test substance in DMSO was added to the suspension to a final concentration of […] and the mixture was subjected to pretreatment at 37° C. for 60 minutes. After pretreatment, lipopolysaccharide (LPS) from E. coli 055:B5 was added to a final concentration of […] and the mixture was incubated overnight in a 37° C., 5% CO^2 incubator. Then, the culture supernatant was collected from each well, and the concentration of TNF-α in the supernatant was determined with a human TNF-α ELISA kit (catalog no. KHC3011, BIOSOURCE) according to the manufacturer's instructions. The test substance concentration (IC50) at which 50% inhibition was achieved was calculated from the measurement.

[3] = test system: type II collagen-induced arthritis; conditions: mouse, in vivo
Method: DBA/1JN mice (female, 8 weeks old, Charles River) were injected intradermally at the three sites of the base of the tail with 140 μL/mouse of a collagen gel prepared by mixing equal volumes of 0.3% aqueous bovine type II collagen solution (Collagen Technical Workshop) and complete Freund's adjuvant H37Ra (Difco). After 21 days, the mice were injected intradermally at the three sites of the back with 140 μL/mouse of a collagen gel prepared likewise. […] At every administration, the mice were treated at 0.04 mg/kg, 0.2 mg/kg, 1 mg/kg, 5 mg/kg or 25 mg/kg using 0.5% sodium carboxymethylcellulose as a vehicle. The mice treated with vehicle alone (i.e., the mice that were not treated with the test substance) were used as controls.
After the first collagen injection, arthritis score of each mouse was measured with time. The arthritis score was calculated by giving scores for both the toes and backs of all four paws of the mouse on the scale below and adding them together (the maximum possible total is 4 per paw and 16 per mouse).
Score 1: Moderate swelling

| Structure (SMILES) | IC50 [2] | EC50 ([1]; Table 1-2) | EC50 ([1]; Table 2) | other results |
| --- | --- | --- | --- | --- |
| CNS(=O)(=O)Nc1cccc(Cc2c(C)c3cc(Cl)c(OC(=O)N(C)C)cc3oc2=O)c1 [Compound 1j-1-3-2, Dimethylcarbamic acid 3-(3-(N-methylsulfamoyl)aminobenzyl)-6-chloro-4-methyl-2-oxo-2H-1-benzopyran-7-yl ester] | 1.86 nM |  |  | EC50 ([1]; Table 1-1): 54 nM |
| Cc1c(Cc2cccc(NS(N)(=O)=O)c2F)c(=O)oc2cc(OC(=O)N(C)C)c(F)cc12 [Compound 1j-1-5-1, Dimethylcarbamic acid 3-{2-fluoro-3-(aminosulfonyl)aminobenzyl}-6-fluoro-4-methyl-2-oxo-2H-1-benzopyran-7-yl ester] | 0.93 nM |  |  | EC50 ([1]; Table 1-1): 590 nM |
| CNS(=O)(=O)Nc1cc(Cc2c(C)c3ccc(OC(=O)N(C)C)cc3oc2=O)ccn1 [Compound 1j-1-10-2, Dimethylcarbamic acid 4-methyl-3-{2-(methylaminosulfonyl)-aminopyridin-4-ylmethyl}-2-oxo-2H-1-benzopyran-7-yl ester] | 10.3 nM | 370 nM |  |  |
| CNS(=O)(=O)Nc1cc(Cc2c(C)c3cc(F)c(OC(=O)N(C)C)cc3oc2=O)ccn1 [Compound 1j-1-11-2, Dimethylcarbamic acid 4-methyl-3-{2-(methylaminosulfonyl)aminopyridin-4-ylmethyl}-6-fluoro-2-oxo-2H-1-benzopyran-7-yl ester] | 5.19 nM | 330 nM |  |  |
| Cc1c(Cc2cccc(NS(N)(=O)=O)c2F)c(=O)oc2cc(Oc3ncccn3)ccc12 [Compound 1j-2-4-1, 3-{2-Fluoro-3-(aminosulfonyl)aminobenzyl}-4-methyl-7-(pyrimidin-2-yloxy)-2-oxo-2H-1-benzopyran] | 25.9 nM |  | 1840 nM |  |
| CNS(=O)(=O)Nc1cccc(Cc2c(C)c3ccc(Oc4ncccn4)cc3oc2=O)c1F [Compound 1j-2-4-2, 3-{2-Fluoro-3-(methylaminosulfonyl)aminobenzyl}-4-methyl-7-(pyrimidin-2-yloxy)-2-oxo-2H-1-benzopyran] | 15.3 nM |  | 730 nM |  |
| CNS(=O)(=O)Nc1cccc(Cc2c(CF)c3ccc(Oc4ncccn4)cc3oc2=O)c1F [Compound 1j-2-4-2F, 3-{2-Fluoro-3-(methylaminosulfonyl)aminobenzyl}-4-fluoromethyl-7-(pyrimidin-2-yloxy)-2-oxo-2H-1-benzopyran] | 9.14 nM |  | 530 nM |  |
| CNS(=O)(=O)Nc1cccc(Cc2c(C)c3ccc(Oc4ncccn4)cc3oc2=O)c1F [Compound 1j-2-4-2Na, 3-{2-fluoro-3-(methylaminosulfonyl)aminobenzyl}-4-methyl-7-(pyrimidin-2-yloxy)-2-oxo-2H-1-benzopyran sodium salt] |  |  |  | type II collagen-induced arthritis (arthritis score) compared to the control group [3]: suppressed; type II collagen-induced arthritis (arthritis score), dose dependence [3]: dose-dependently suppressed |
| CNS(=O)(=O)Nc1cccc(Cc2c(C)c3cc(F)c(Oc4ncccn4)cc3oc2=O)c1F [Compound 1j-2-5-2, 3-{2-Fluoro-3-(methylaminosulfonyl)aminobenzyl}-4-methyl-7-(pyrimidin-2-yloxy)-6-fluoro-2-oxo-2H-1-benzopyran] | 14.9 nM |  | 417 nM |  |
| Cc1c(Cc2cccc(NS(N)(=O)=O)c2F)c(=O)oc2cc(Oc3nccs3)ccc12 [Compound 1j-3-4-1, 3-{2-Fluoro-3-(aminosulfonyl)aminobenzyl}-4-methyl-7-(thiazol-2-yloxy)-2-oxo-2H-1-benzopyran] | 7.36 nM | 425 nM |  |  |
| CNS(=O)(=O)Nc1cccc(Cc2c(C)c3ccc(Oc4nccs4)cc3oc2=O)c1F [Compound 1j-3-4-2, 3-{2-Fluoro-3-(methylaminosulfonyl)aminobenzyl}-4-methyl-7-(thiazol-2-yloxy)-2-oxo-2H-1-benzopyran] | 1.84 nM | 267 nM |  |  |
| CNS(=O)(=O)Nc1cc(Cc2c(C)c3cc(C)c(Oc4nccs4)cc3oc2=O)ccn1 [Compound 1j-3-20-2, 3-{2-(Methylaminosulfonyl)aminopyridin-4-ylmethyl}-4-methyl-6-methyl-7-(thiazol-2-yloxy)-2-oxo-2H-1-benzopyran] |  | 100 nM |  |  |
| CNS(=O)(=O)Nc1nccc(Cc2c(C)c3cc(C)c(Oc4nccs4)cc3oc2=O)c1Cl [Compound 1j-3-44-2, 3-{2-(Methylaminosulfonyl)amino-3-chloropyridin-4-ylmethyl}-4-methyl-6-methyl-7-(thiazol-2-yloxy)-2-oxo-2H-1-benzopyran] |  | 202 nM |  |  |
| CNC(=O)CS(=O)(=O)Nc1cccc(Cc2c(C)c3cc(Cl)c(OC(=O)N(C)C)cc3oc2=O)c1 [Compound 1o-1-3-2, Dimethylcarbamic acid 3-(3-methylcarbamoylmethanesulfonylamino-benzyl)-6-chloro-4-methyl-2-oxo-2H-1-benzopyran-7-yl ester] |  |  |  | EC50 ([1]; Table 1-1): 290 nM |
| Cc1c(Cc2cccc(NS(=O)(=O)CC(=O)N(C)C)c2)c(=O)oc2cc(OC(=O)N(C)C)c(Cl)cc12 [Compound 1o-1-3-3, Dimethylcarbamic acid 3-(3-dimethylcarbamoylmethanesulfonylamino-benzyl)-6-chloro-4-methyl-2-oxo-2H-1-benzopyran-7-yl ester] |  |  |  | EC50 ([1]; Table 1-1): 190 nM |
| CNC(=O)CS(=O)(=O)Nc1cccc(Cc2c(C)c3ccc(Oc4nccs4)cc3oc2=O)c1F [Compound 1o-3-4-2, 2-{2-Fluoro-3-[4-methyl-2-oxo-7-(thiazol-2-yloxy)-2H-1-benzopyran-3-ylmethyl]phenylsulfamoyl}-N-methyl-acetamide] |  |  | 2660 nM |  |
